Data as given in patent publication US12338287B2, “Treatment of cancer using a CD33 chimeric antigen receptor” (Novartis AG, priority 2014, dated 2025).
Read-outs that look alike come from different tables or passages of the source.

How the values were obtained:
[1] = test system: humanized CD19 CART cells; assay: In vivo proliferation of humanized CD19 CART cells with and without RAD001; conditions: 0.003 mg/kg daily with huCTL019; CD4+ and CD8+ CAR T cells
Method: FIGS. 57A and 57B show in vivo proliferation of humanized CD19 CART cells with and without RAD001 dosing. […] Circles denote PBS; squares denote huCTL019; triangles denote huCTL019 with 3 mg/kg RAD001; inverted triangles denote huCTL019 with 0.3 mg/kg RAD001; diamonds denote huCTL019 with 0.03 mg/kg RAD001; and circles denote huCTL019 with 0.003 mg/kg RAD001.

[2] = RAD001 PK analysis in tumor bearing mice; type: in vivo, NSG mice; conditions: for concentration at 24 h: NSG, mouse, whole blood
Method: (§1) RAD001 dosing: A concentrated micro-emulsion of 50 mg equal to 1 mg RAD001 was formulated and then resuspended in D5W (dextrose 5% in water) at the time of dosing. Mice were orally dosed daily (via oral gavage) with 200 μl of the desired doses of RAD001.
PK analysis: Mice were dosed daily with RAD001 starting 7 days post tumor implantation. Dosing groups were as follows: 0.3 mg/kg, 1 mg/kg, 3 mg/kg, and 10 mg/kg. Mice were bled on days 0 and 14 following the first and last dose of RAD001, at the following time points for PK analysis: 15 minutes, 30 minutes, 1 hour, 2 hours, 4 hours, 8 hours, 12 hours, and 24 hours.

[3] = test system: huCART19 cells co-cultured with Nalm-6; assay: Effect of RAD001 on CART proliferation, 4 day co-culture; type: cell-based, human
Method: To evaluate the functionality of CARTs, the T cells are thawed and counted, and viability is assessed by Cellometer. The number of CAR-positive cells in each culture is normalized using non-transduced T cells (UTD). The impact of RAD001 on CARTs was tested in titrations with RAD001, starting at 50 nM. The target cell line used in all co-culture experiments is Nalm-6, a human pre-B cell acute lymphoblastic leukemia (ALL) cell line expressing CD19 and transduced to express luciferase.
For measuring the proliferation of CARTs, T cells are cultured with target cells at a ratio of 1:1. The assay is run for 4 days, when cells are stained for CD3, CD4, CD8 and CAR expression. The number of T cells is assessed by flow cytometry using counting beads as reference.

huCAR19 CAR T cells = assay: CAR T cell expansion in vivo with RAD001 (FACS); parameters: species or system NSG mice; conditions: lowest doses of RAD001, daily oral; FIG. 57
Method: CAR T cell dosing: Mice were administered 5×10^6 CAR T cells 7 days after tumor implantation. Cells were partially thawed in a 37 degree Celsius water bath and then completely thawed by the addition of 1 ml of cold sterile PBS to the tube containing the cells. The thawed cells were transferred to a 15 ml falcon tube and adjusted to a final volume of 10 mls with PBS. The cells were washed twice at 1000 rpm for 10 minutes each time and then counted on a hemocytometer. T cells were then resuspended at a concentration of 50×10^6 CAR T cells per ml of cold PBS and kept on ice until the mice were dosed. The mice were injected intravenously via the tail vein with 100 μl of the CAR T cells for a dose of 5×10^6 CAR T cells per mouse. Eight mice per group were treated either with 100 μl of PBS alone (PBS), or humanized CD19 CAR T cells.
as §1
Based on these doses, huCAR19 CAR T cells were dosed with and without RAD001 to determine the proliferative ability of these cells. The highest dose used was 3 mg/kg based on the levels of RAD001 in the blood 24 hours after dosing. […] Mice were monitored via FACS for T cell expansion.

[4] = test system: CAR-expressing, transduced T cells; assay: CART proliferation in co-culture with Nalm-6 cells in presence of RAD001; type: cell-based; conditions: CARTs co-cultured with Nalm-6 cells, different concentrations of RAD001, 4 days
Method: CARTs were co-cultured with Nalm-6 cells in the presence of different concentrations of RAD001. The number of CAR-positive CD3-positive T cells (black) and total T cells (gray) was assessed after 4 days of co-culture.

NALM6-luc tumors = assay: RAD001 alone on NALM6-luc tumor growth; type: in vivo, NSG mice; conditions: daily oral dosing of RAD001 alone; FIG. 55
Method: NALM6-luc cells: The NALM6 human acute lymphoblastic leukemia (ALL) cell line was developed from the peripheral blood of a patient with relapsed ALL. The cells were then tagged with firefly luciferase. These suspension cells grow in RPMI supplemented with 10% heat inactivated fetal bovine serum.
Mice: 6 week old NSG (NOD.Cg-Prkdc^scidIl2rg^tmIWjl/SzJ) mice were received from the Jackson Laboratory (stock number 005557).
Tumor implantation: NALM6-luc cells were grown and expanded in vitro in RPMI supplemented with 10% heat inactivated fetal bovine serum. The cells were then transferred to a 15 ml conical tube and washed twice with cold sterile PBS. NALM6-luc cells were then counted and resuspended at a concentration of 10×10^6 cells per milliliter of PBS. The cells were placed on ice and immediately (within one hour) implanted in the mice. NALM6-luc cells were injected intravenously via the tail vein in a 100 μl volume, for a total of 1×10^6 cells per mouse.
as §1

protein L = assay: Protein L binding of scFv on JNL cells; conditions: data not shown
hsCD33 = hsCD33 (Homo sapiens, UniProt P20138); assay: Cell surface scFv on JNL cells detected with recombinant Fc-tagged hsCD33; type: binding; conditions: recombinant Fc-tagged hsCD33, PE secondary antibody; relative to GFP or CD19 scFv JNL cells
Method: (§2) FIG. 27 is an image depicting the cell surface expression of scFvs on a Jurkat T cell line, which contains a luciferase reporter driven by an NFAT-regulated promoter (termed JNL cells). JNL cells were transduced with a lentiviral vector expressing a cDNA encoding GFP, a scFv that binds to CD19, or cDNAs that encode an scFv, which was raised against hsCD33. The cell surface expression of individual scFv's on JNLs was detected by incubating cells with recombinant Fc-tagged hsCD33 followed by incubation with an Fc-specific secondary antibody conjugated to phycoerythrin.
as §2, with “To depict the” for “FIG. 27 is an image depicting the”, “of scFv's” for “of scFvs”, “JNL cells),” for “JNL cells).”, “GFP, an” for “GFP, a”, “against hsCD33 (FIG. 27).” for “against hsCD33.”

MOLM13 = assay: NFAT-dependent luciferase reporter activation of JNL cells; type: cell-based; conditions: JNL cells co-cultured with MOLM13 relative to MOLP8 or GFP JNL cells; 24 hours
Source text: FIGS. 28A, 28B, 28C, and 28D are images showing the ability of individual scFv's targeting hsCD33 to elicit NFAT activity in JNL cells. JNL cells expressing scFv's against hsCD33 were co-cultured with MOLM13 or MOLP8 cell lines, which express hsCD33 or lack hsCD33 cell surface expression, respectively (FIG. 28A; hsCD33, solid green line; isotype control, gray dashed line and shaded area). FIG. 28B depicts the activation of JNL cells expressing an scFv targeting hsCD33 in the presence of MOLM13 (solid lines) or MOLP8 (dashed lines) cells. JNL cells expressing individual scFv's were plated at different effector (i.e. JNL cells) to target (i.e. MOLM13 or MOLP8) ratios and analyzed for the expression of relative luciferase units (RLUs) using the Bright-Glo™ Luciferase Assay on the EnVision instrument 24 hours post-incubation. FIG. 28C is a version of FIG. 28B, depicting the activation of JNL cells in the presence of MOLM13. […]
Individual scFv's targeting hsCD33 were evaluated for their ability to elicit NFAT activity in JNL cells (FIG. 28). […] JNL cells expressing individual scFv's were plated at different effector (i.e. JNL cells) to target (i.e. MOLM13 or MOLP8) ratios and analyzed for the expression of relative luciferase units (RLUs) using the Bright-Glo™ Luciferase Assay on the EnVision instrument 24 hours post-incubation.

[5] = molecular target: recombinant Fc-tagged hsCD33 (Homo sapiens, UniProt P20138); assay: scFv binding to recombinant CD33 by flow cytometry (JNL cells); conditions: scFv on JNL cells, Fc-tagged hsCD33, PE secondary; FIG. 32
Method: Finally, scFv cross-reactivity to cynomolgus CD33 (cyCD33) was assessed by flow cytometry as depicted in FIG. 32. JNL cells transduced with a lentiviral vector expressing scFv's raised against hsCD33 were incubated with either recombinant Fc-tagged hsCD33 (red line) or cyCD33 (blue line) followed by incubation with an Fc-specific secondary antibody conjugated to phycoerythrin.

hsCD33, sequence (P20138 18-259 limits assumed): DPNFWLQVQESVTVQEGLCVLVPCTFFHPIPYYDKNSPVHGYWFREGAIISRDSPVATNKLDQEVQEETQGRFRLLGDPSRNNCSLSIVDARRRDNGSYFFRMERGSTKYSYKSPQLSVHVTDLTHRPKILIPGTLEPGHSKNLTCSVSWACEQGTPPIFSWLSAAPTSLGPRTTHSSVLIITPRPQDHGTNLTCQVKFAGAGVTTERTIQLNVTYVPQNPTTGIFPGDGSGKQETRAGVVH
recombinant Fc-tagged hsCD33, sequence (P20138 18-259 limits assumed): as above

Molecule: CO[C@H]1C[C@@H]2CC[C@@H](C)[C@@](O)(O2)C(=O)C(=O)N2CCCC[C@H]2C(=O)O[C@H]([C@H](C)C[C@@H]2CC[C@@H](OCCO)[C@H](OC)C2)CC(=O)[C@H](C)/C=C(\C)[C@@H](O)[C@@H](OC)C(=O)[C@H](C)C[C@H](C)/C=C/C=C/C=C/1C [RAD001, (1R,9S,12S,15R,16E,18R,19R,21R,23 S,24E,26E,28E,30S,32S,35R)-1,18-dihydroxy-12-{(1R)-2-[(1 S,3R,4R)-4-(2-hydroxyethoxy)-3-methoxycyclohexyl]-1-methylethyl}-19,30-dimethoxy-15,17,21,23,29,35-hexamethyl-11,36-dioxa-4-aza-tricyclo[30.3.1.04,9]hexatriaconta-16,24,26,28-tetraene-2,3,10,14,20-pentaone]
- CAR T cell proliferation in vivo [1]: enhancement in CAR T cell proliferation, above the normal level of huCAR19 proliferation
- concentration at 24 h ([2]; oral, 0.3 mg/kg, 24 hours after the final dose of RAD001, read-out: Concentration of RAD001): > 10 nM
- concentration at 24 h ([2]; 24 hours after dosing, 0.3 mg/kg oral, day 0 and day 14, read-out: RAD001 concentrations in the blood): > 10 nM
- Stability in the blood ([2]; tumor bearing mice, FIGS. 56A, 56B): fairly stable in the blood
- Proliferation of huCART19 cells ([3]; 0.0032 and 0.016 nM RAD001, 4 day co-culture with Nalm-6, FIG. 54): proliferation was higher than observed without the addition of RAD001
- RAD001 concentration at which huCART19 cells expanded ([3]; 4 day co-culture with Nalm-6): less than 0.016 nM
- Proliferation of the CAR T cells in vivo (huCAR19 CAR T cells): enhanced proliferation of the CAR T cells
- Proliferation of CAR-expressing, transduced T cells [4]: enhanced by low doses of RAD001
- Growth of NALM6-luc tumors (NALM6-luc tumors): did not have an impact on the growth of NALM6-luc tumors

B1: CD33-8: fully human anti-CD33 scFv CAR with 4-1BB and CD3zeta; full CAR SEQ ID NO: 55, scFv SEQ ID NO: 46 (protein)
chain: MALPVTALLLPLALLLHAARPQVQLVQSGAEVKKPGASVRVSCKASGYMFTDFFIHWVRQAPGQGLEWMGWINPNSGVTKYAQKFQGRVTMTRNTSISTAYMELSSLRSEDTAVYYCATWYSSGWYGIANIWGQGTMVTVSSASGGGGSGGGGSGGGGSDIQLTQSPSSLSASVGDRVTITCQASHDISNYLHWYQQKPGKAPKLLIYDASNLETGVPSRFTGSGSGTDFTLTIRSLQPEDVAAYYCQQSDDLPHTFGQGTKVDIKTTTPAPRPPTPAPTIASQPLSLRPEACRPAAGGAVHTRGLDFACDIYIWAPLAGTCGVLLLSLVITLYCKRGRKKLLYIFKQPFMRPVQTTQEEDGCSCRFPEEEEGGCELRVKFSRSADAPAYKQGQNQLYNELNLGRREEYDVLDKRRGRDPEMGGKPRRKNPQEGLYNELQKDKMAEAYSEIGMKGERRRGKGHDGLYQGLSTATKDTYDALHMQALPPR
- Binding to protein L (protein L): lacked appreciable binding to either hsCD33 or protein L
- Binding to hsCD33 (cell surface scFv on JNL cells) (hsCD33): lacked appreciable binding to either hsCD33 or protein L

B2: CD33-UPenn: an scFv based on the sequence of Mylotarg, a monoclonal antibody that binds to the human CD33 antigen (protein)
chain: EIVLTQSPGSLAVSPGERVTMSCKSSQSVFFSSSQKNYLAWYQQIPGQSPRLLIYWASTRESGVPDRFTGSGSGTDFTLTISSVQPEDLAIYYCHQYLSSRTFGQGTKLEIKRGGGGSGGGGSSGGGSQVQLQQPGAEVVKPGASVKMSCKASGYTFTSYYIHWIKQTPGQGLEWVGVIYPGNDDISYNQKFQGKATLTADKSSTTAYMQLSSLTSEDSAVYYCAREVRLRYFDVWGQGTTVTVSS
modifications: left off: small tags and cut ends
- NFAT-dependent luciferase activity (RLUs) (MOLM13): capable of triggering NFAT-dependent luciferase activity
- Binding of hsCD33 [5]: capable of binding hsCD33
